The results in this text go back to patent publication US4255183A, “Substituted phenyl urea and herbicides for use in paddy field” (Hokko Chemical Industry Co., Ltd., priority 1977, dated 1981).

Read-outs that look alike come from different tables or passages of the source.

For experiment [1], the system named is Echinochloa crus-galli var. oryzicola. Kind of experiment: Test Example 2: concrete pot test on killing effect, Echinochloa crus-galli var. oryzicola. The experiment is classed as in vivo. The note with it: for inhibition at 300 g/ha / inhibition at 1000 g/ha / inhibition at 3000 g/ha / inhibition at 9000 g/ha: Echinochloa crus-galli, 720 h. As for the experimental part:
(§1) In a Wagner pot of 1/500 are, paddy field soil (alluvial soil) was placed and 50 seeds of Echinochloa crus-galli var. oryzicola and 30 seeds of paddy rice were seeded in the surface layer of said soil and the submerging depth was kept at about 1 cm. When Echinochloa crus-galli var. oryzicola reached at the one leaf stage and 5-leaf stage, the emulsion of a predetermined concentration, prepared according to Example 4 was added dropwise. After 30 days from the treatment with the chemical, dry weights of Echinochloa crus-galli var. oryzicola and paddy rice were measured and the inhibition rate was calculated with reference to untreated area. [formula]
(§2) In a concrete pot of 1/400 are (50 cm×50 cm), paddy field soil (alluvial soil) was placed and 200 seeds of Echinochloa crus-galli var. oryzicola were seeded in 10 surface layer of said soil and the soil was submerged at about 3 cm depth. Before emergence of Echinochloa crus-galli var. oryzicola, paddy rice at 2.5-leaf stage (Asahi species) was transplanted at the rate of 8 stubs per pot, planting 3 seedlings per stub. At the one-leaf stage (3.5 leaves stage of paddy rice) and 5 leaves stage (7 leaves stage of paddy rice) of Echinochloa crus-galli var. oryzicola, the granule prepared according to Example 1 was applied. […] 30 Days after the treatment with the chemical, examination was made in the similar manner as Test Example 1 to obtain results as shown in Table 2.
(§3) In the table, as the comparative chemicals CPN, Benthiocarb, Molinate and Simetryne, those commercially available were used and the comparative chemicals A and B (as mentioned before) used were prepared according to the process for preparing the compound of this invention.

In experiment [2] the test system is paddy rice. Description: whole plant or invertebrate. The experiment is classed as in vivo, paddy rice (Asahi species). The note with it: for inhibition at 300 g/ha / inhibition at 1000 g/ha / inhibition at 3000 g/ha / inhibition at 9000 g/ha: Oryza sativa, 720 h. How it is done: as §1, §2, §3
Experiment [3] deals with paddy rice. Kind of experiment: Test Example 1: pot test on selectivity, inhibition of paddy rice. Type of experiment: in vivo. The conditions noted are these: dry weight 30 days after treatment. How it is done:
In a Wagner pot of 1/500 are, paddy field soil (alluvial soil) was placed and 50 seeds of Echinochloa crus-galli var. oryzicola and 30 seeds of paddy rice were seeded in the surface layer of said soil and the submerging depth was kept at about 1 cm. […] After 30 days from the treatment with the chemical, dry weights of Echinochloa crus-galli var. oryzicola and paddy rice were measured and the inhibition rate was calculated with reference to untreated area. [formula]
(§4) The comparative chemicals used, i.e. DCMU and Linuron, were those commercially available, and the comparative chemicals A and B used were prepared according to the process for formulating the compound of this invention.

Experiment [4] concerns Echinochloa crus-galli var. oryzicola. Description: Test Example 1: pot test on selectivity, inhibition of Echinochloa crus-galli var. oryzicola. Type of experiment: in vivo. The note with it: dry weight 30 days after treatment. How it is done: as §1, §4
[5] abbreviates: 100 g/10 are, granule, 30 days after treatment.
The mark [6] stands for this setting: 300 g/10 are, granule, 30 days after treatment.
[7] abbreviates: 900 g/10 are, granule, 30 days after treatment.
The mark [8] stands for this setting: read-out: Inhibition (%) by treatment at 1-leaf stage of E. crus-galli var. oryzicola, E. crus-galli var. oryzicola.
The mark [9] stands for this setting: read-out: Inhibition (%) by treatment at 5-leaf stage of E. crus-galli var. oryzicola, E. crus-galli var. oryzicola.
The mark [10] stands for this setting: read-out: Inhibition (%) by treatment at 1-leaf stage of E. crus-galli var. oryzicola, paddy rice.
Setting [11] is: read-out: Inhibition (%) by treatment at 5-leaf stage of E. crus-galli var. oryzicola, paddy rice.

With `CC(Cl)=CCOc1ccc(NC(=O)N(C)C)cc1` [Comparative chemical A], the “Inhibition (%) by treatment at 1-leaf stage of E. crus-galli var. oryzicola, E. crus-galli var. oryzicola” value in experiment [1] (setting [5]), in experiment [1] (setting [6]) and in experiment [1] (setting [7]) was 100% each time. Further, the “Inhibition (%) by treatment at 5-leaf stage of E. crus-galli var. oryzicola, E. crus-galli var. oryzicola” value turned out to be 48% in experiment [1] (setting [5]), 72% in experiment [1] (setting [6]) and 98% in experiment [1] (setting [7]). The “Inhibition (%) by treatment at 1-leaf stage of E. crus-galli var. oryzicola, paddy rice” value with paddy rice [2] (100 g/10 are, granule, rice at 3.5 leaves stage, 30 days) is on record as 0%; in the experiment on paddy rice [2] (300 g/10 are, granule, rice at 3.5 leaves stage, 30 days) it was 0%; in the experiment with paddy rice [2] (900 g/10 are, granule, rice at 3.5 leaves stage, 30 days) it was 23%. Further, the “Inhibition (%) by treatment at 5-leaf stage of E. crus-galli var. oryzicola, paddy rice” value in the experiment on paddy rice [2] (100 g/10 are, granule, rice at 7 leaves stage, 30 days) came out at 0%; with paddy rice [2] (300 g/10 are, granule, rice at 7 leaves stage, 30 days), 0%; with paddy rice [2] (900 g/10 are, granule, rice at 7 leaves stage, 30 days), 5%. Besides, the “Inhibition (%) by treatment at 1-leaf stage, paddy rice” value in the experiment with paddy rice [3] (75 g/10 are) was 0%; with paddy rice [3] (150 g/10 are) it was 0%; with paddy rice [3] (300 g/10 are), 0%; in the experiment with paddy rice [3] (600 g/10 are) it was 15%; in the experiment on paddy rice [3] (900 g/10 are) it was 35%. Moreover, the “Inhibition (%) by treatment at 5-leaf stage, paddy rice” value in the experiment on paddy rice [3] (75 g/10 are) is recorded as 0%; with paddy rice [3] (150 g/10 are), 0%; in the experiment on paddy rice [3] (300 g/10 are), 0%; in the experiment with paddy rice [3] (600 g/10 are), 0%; in the experiment on paddy rice [3] (900 g/10 are) it was 12%. Moreover, the “Inhibition (%) by treatment at 1-leaf stage, E. crus-galli var. oryzicola” value came out at 87% in experiment [4] (75 g/10 are); 100% in experiment [4] (150 g/10 are); 100% in experiment [4] (300 g/10 are); 100% in experiment [4] (600 g/10 are); 100% in experiment [4] (900 g/10 are). In addition, the “Inhibition (%) by treatment at 5-leaf stage, E. crus-galli var. oryzicola” value is 37% in experiment [4] (75 g/10 are); 67% in experiment [4] (150 g/10 are); 82% in experiment [4] (300 g/10 are); 95% in experiment [4] (600 g/10 are); 100% in experiment [4] (900 g/10 are).

A word on the inhibition: it is the percentage by which the read-out fell short of the control. For `CCNc1nc(NCC)nc(SC)n1` [Simetryne, 2,4-bis(ethylamino)-6-methylthio-1,3,5-triazine], the inhibition at 300 g/ha in experiment [1] (setting [8]) was 20%; in experiment [1] (setting [9]) it was 0%; with paddy rice [2] (setting [10]) it was 0%; with paddy rice [2] (setting [11]) it was 0%. Besides, the inhibition at 1000 g/ha in experiment [1] (setting [8]) worked out at 100%; in experiment [1] (setting [9]) it was 7%; in the experiment with paddy rice [2] (setting [10]) it was 74%; in the experiment with paddy rice [2] (setting [11]) it was 17%. Also, the inhibition at 3000 g/ha is 100% in experiment [1] (setting [8]), 36% in experiment [1] (setting [9]), 100% in the experiment with paddy rice [2] (setting [10]) and 46% with paddy rice [2] (setting [11]).

Consider `O=[N+]([O-])c1ccc(Oc2c(Cl)cc(Cl)cc2Cl)cc1` [CNP, 2,4,6-trichlorophenyl-4'-nitrophenylether], for which the inhibition at 1000 g/ha was 65% in experiment [1] (100 g/10 are, granule, 30 days after treatment, read-out: Inhibition (%) by treatment at 1-leaf stage of E. crus-galli var. oryzicola, E. crus-galli var. oryzicola); 0% in experiment [1] (100 g/10 are, granule, 30 days after treatment, read-out: Inhibition (%) by treatment at 5-leaf stage of E. crus-galli var. oryzicola, E. crus-galli var. oryzicola); 0% in the experiment on paddy rice [2] (100 g/10 are, granule, rice at 3.5 leaves stage, 30 days, read-out: Inhibition (%) by treatment at 1-leaf stage of E. crus-galli var. oryzicola, paddy rice); 0% in the experiment with paddy rice [2] (100 g/10 are, granule, rice at 7 leaves stage, 30 days, read-out: Inhibition (%) by treatment at 5-leaf stage of E. crus-galli var. oryzicola, paddy rice). Besides, the inhibition at 3000 g/ha worked out at 100% in experiment [1] (300 g/10 are, granule, 30 days after treatment, read-out: Inhibition (%) by treatment at 1-leaf stage of E. crus-galli var. oryzicola, E. crus-galli var. oryzicola); 0% in experiment [1] (300 g/10 are, granule, 30 days after treatment, read-out: Inhibition (%) by treatment at 5-leaf stage of E. crus-galli var. oryzicola, E. crus-galli var. oryzicola); 8% in the experiment on paddy rice [2] (300 g/10 are, granule, rice at 3.5 leaves stage, 30 days, read-out: Inhibition (%) by treatment at 1-leaf stage of E. crus-galli var. oryzicola, paddy rice); 0% with paddy rice [2] (300 g/10 are, granule, rice at 7 leaves stage, 30 days, read-out: Inhibition (%) by treatment at 5-leaf stage of E. crus-galli var. oryzicola, paddy rice). In addition, the inhibition at 9000 g/ha turned out to be 100% in experiment [1] (900 g/10 are, granule, 30 days after treatment, read-out: Inhibition (%) by treatment at 1-leaf stage of E. crus-galli var. oryzicola, E. crus-galli var. oryzicola); 0% in experiment [1] (900 g/10 are, granule, 30 days after treatment, read-out: Inhibition (%) by treatment at 5-leaf stage of E. crus-galli var. oryzicola, E. crus-galli var. oryzicola); 52% with paddy rice [2] (900 g/10 are, granule, rice at 3.5 leaves stage, 30 days, read-out: Inhibition (%) by treatment at 1-leaf stage of E. crus-galli var. oryzicola, paddy rice); 0% with paddy rice [2] (900 g/10 are, granule, rice at 7 leaves stage, 30 days, read-out: Inhibition (%) by treatment at 5-leaf stage of E. crus-galli var. oryzicola, paddy rice).
